# In patent US11472845B2, “Antitumor peptide and use thereof” (TOAGOSEI CO., LTD., priority 2019, dated 2022):
# Read-outs that look alike come from different tables or passages of the source. Ends that are not written are not given here.
# Assays:
# [1] = test system: human melanoma cell lines (A375); format: cell-based; conditions: for Cell viability (%) of test cells: human, 48 h
# Description: The antitumor activity of Sample 1 synthesized in the above Test Example 1 with respect to human-derived cultured tumor cells was evaluated. Currently commercially available human gastric cancer cell lines (FU97), human alveolar basal epithelial adenocarcinoma cell lines (A549), human breast cancer cell lines (MDA-MB-231), and human melanoma cell lines (A375) were prepared as test tumor cells. In addition, normal human mammary epithelial cell culture lines (MCF-12F) were prepared for comparison. A DMEM culture medium including 50 unit/mL of penicillin, 50 μg/mL of streptomycin, and 10% FBS. The above five types of cell lines were cultured in respective designated culture solutions. The cell lines were cultured so that the number of cells per well in a 96-hole (well) plate was about 5×10^3. Here, an amount of the culture solution per well was 100 μL. The 96-well plate was then placed in a CO2 incubator. Then, pre-incubation was performed under conditions of 37° C. and 5% CO2 for about 1 day (about 23 hours). Then, regarding the culture solution for the peptide addition area, culture solutions containing Sample 1 for each concentration were prepared so that the concentration of Sample 1 was 6.25 μM, 12.5 μM or 25 μM and supplied to wells (that is, wells after the pre-incubation) in which 90 μL of cells to be evaluated were cultured in each well. On the other hand, regarding the culture solution for the comparative test area, a culture solution to which no Sample 1 was added was prepared, and supplied to wells (that is, wells after the pre-incubation) in which 90 μL of cells to be evaluated were cultured in each well. The 96-well plate was then placed in a CO2 incubator, and incubated under conditions of 37° C. and 5% CO2 for 48 hours. After the incubation for 48 hours, the culture solution in each well was replaced with […] a fresh culture solution containing no Sample 1. […] Then, the absorbance at a wavelength of 450 nm (value corrected by the absorbance at a wavelength of 620 nm: A450-A620) was measured based on the reduction of the tetrazolium salt in the culture solution. Then, the cell viability was calculated according to a colorimetric method. In the test areas (test areas 1 to 3) in the peptide addition area, the cell viability of each of the above five types of cell lines was calculated as a relative value when a measured value (measurement absorbance) of the comparative test area in the same cell lines was set as 100%. That is, regarding each of the above five types of cell lines, the cell viability (%) was calculated by dividing the measurement absorbance of the test areas (test areas 1 to 3) in the peptide addition area by the measurement absorbance of the comparative test area in the same cell lines and multiplying by 100.
# [2] = in vitro; format: cell-based; conditions: human
# Description: Currently commercially available human gastric cancer cell lines (FU97), human alveolar basal epithelial adenocarcinoma cell lines (A549), human breast cancer cell lines (MDA-MB-231), and human melanoma cell lines (A375) were prepared as test tumor cells. In addition, normal human mammary epithelial cell culture lines (MCF-12F) were prepared for comparison. A DMEM/F12 culture medium including 20 ng/mL of recombinant EGF, 10 μg/mL of insulin, 0.5 μg/mL of hydrocortisone, and 10% FBS (product, commercially available from Wako Pure Chemical Industries, Ltd.). The above five types of cell lines were cultured in respective designated culture solutions. The cell lines were cultured so that the number of cells per well in a 96-hole (well) plate was about 5×10^3. Here, an amount of the culture solution per well was 100 μL. The 96-well plate was then placed in a CO2 incubator. Then, pre-incubation was performed under conditions of 37° C. and 5% CO2 for about 1 day (about 23 hours). Then, regarding the culture solution for the peptide addition area, culture solutions containing Sample 1 for each concentration were prepared so that the concentration of Sample 1 was 6.25 μM, 12.5 μM or 25 μM and supplied to wells (that is, wells after the pre-incubation) in which 90 μL of cells to be evaluated were cultured in each well. On the other hand, regarding the culture solution for the comparative test area, a culture solution to which no Sample 1 was added was prepared, and supplied to wells (that is, wells after the pre-incubation) in which 90 μL of cells to be evaluated were cultured in each well. The 96-well plate was then placed in a CO2 incubator, and incubated under conditions of 37° C. and 5% CO2 for 48 hours. […] Then, the absorbance at a wavelength of 450 nm (value corrected by the absorbance at a wavelength of 620 nm: A450-A620) was measured based on the reduction of the tetrazolium salt in the culture solution. Then, the cell viability was calculated according to a colorimetric method. […]
substance,measurement,setting,value
MACLGFQRHKAQLNLATRTWPCTLLFFLLFIPVFCKKRTLRKTDRKKR-NH2 (cysteines drawn unpaired) [Sample 1],Specific cell viability of test tumor cells,"[1]; A375, 12.5 μM Sample 1, (cell viability of test tumor cells)/(cell viability of MCF-12F cells)×100",35.7
same,Cell viability (%) of test cells,[1]; 6.25 μM,57.8%
same,Cell viability (%) of test cells,[1]; 12.5 μM,40.8%
same,Cell viability (%) of test cells,[1]; 25 μM,31.6%
same,"viability at 48 h, 6.25 μM",[2],130%
same,"viability at 48 h, 12.5 μM",[2],114%
same,"viability at 48 h, 25 μM",[2],82%
